Assay results from patent US12458688B2, “Epitopes” (Scancell Limited, priority 2018, dated 2025).

Tests used:
HLA-HHDII/DP4 mice = experiment: Ex vivo IFNγ ELISpot after peptide immunisation, HHDII/DP4 mice; assay type: in vivo, mouse; conditions: for IFNγ ELISpot response: 3 immunisations with CpG/MPLA, day 21
Experimental: C57BL/6 mice (Charles River, UK), HLA-DR4 mice (Model #4149, Taconic, USA), HLA-A2/DR1 (HHDII/DR1, Pasteur Institute), HLA-A2.1+/+HLA-DP4+/+hCD4+/+ (HLA-HHDII/DP4) transgenic mice (EM: 02221, European Mouse Mutant Archive) described in patent WO2013/017545 A1 (EMMA repository, France) were used, aged between 8 and 12 weeks. Peptides were dissolved in PBS to 1 mg/ml and then emulsified (a series of dilutions) with CpG ODN 1826 and MPLA 6 μg/mouse of each (Invivogen, UK). Peptides (25 μg/mouse) were injected subcutaneously at the base of the tail. Mice were immunised at days 1, 7 and 14 for peptide immunisation. Spleens were removed for analysis at day 21 unless stated otherwise.
ELISpot assays were performed using murine IFNγ, IL-17 and IL-10 capture and detection reagents according to the manufacturer's instructions (Mabtech, Sweden). In brief, anti-IFNγ, IL-17 and IL-10 specific antibodies were coated onto wells of 96-well Immobilin-P plate. Synthetic peptides (at various concentrations) and 5×10^5 per well splenocytes were added to wells of the plate in quadruplicate Tumour target cells were added where relevant at 5×10^4/well in triplicate and plates incubated for 40 hrs at 37° C. After incubation, captured IFNγ, IL-10 and IL-17 were detected by biotinylated anti-IFNγ, IL-10 and IL-17 antibodies and developed with a streptavidin alkaline phosphatase and chromogenic substrate. Lipopolysaccharide (LPS; 5 μg/ml) was used as a positive control. For MHC blocking studies, anti-CD4 blocking antibody (GK1.5) or anti-CD4 blocking antibody (RPA-T4) for HHDII/DP4 mice which express human CD4 and anti-CD8 blocking antibody (2.43) from Bioxcell were used at 20 μg/ml. Spots were analysed and counted using an automated plate reader (Cellular Technologies Ltd).
Screening was performed to identify potential homocitrullinated ALDOA epitopes in transgenic HHDII/DP4 and HHDII/DR1 mice. Mice were immunised with pools of human homocitrullinated peptides. […] Each pool was administered as three immunisations containing 20 μg of each peptide and CpG/MPLA as an adjuvant. After 21 days the mice were culled and the immune responses to each peptide within the immunising pool were assessed by ex vivo ELISpot in HHDII/DP4 (FIG. 4b) and HHDII/DR1 mice (FIG. 4d). […] Our predictions therefore identified 3/5 peptides which could induce a T cell response. […] Of the responding peptides ALDOA 74-93 Hcit and 140-157 Hcit peptides are homologous in human and mice therefore these two peptides were selected for further investigation. Minimal IL-10 (FIG. 6b) or IL-17 (FIG. 6c) responses were seen to Aldolase peptides in HHDII/DP4 mice.
Using this combination of predictions, 5 CyK8 peptides containing homocitrulline were synthesised (Table 4). Screening was performed to identify potential homocitrullinated Cyk8 epitopes in transgenic HHDII/DP4. Mice were immunised with pools of human homocitrullinated peptides. […] Each pool was administered as three immunisations containing 20 μg of each peptide and CpG/MPLA as an adjuvant. After 21 days the mice were culled and the immune responses to each peptide within the immunising pool were assessed by ex vivo ELISpot in HHDII/DP4 (FIG. 10a). […] The responses to CyK8 101-120 Hcit, 112-131 Hcit, 182-201 Hcit, 371-388 Hcit and 381-399 Hcit immunisation were characterised for cross reactivity to the wt peptide sequence. […] Thus a key characteristic of immunogenic peptides is they express homocitrulline. All of these peptides (100%) were immunogenic. Thus a high predicted HLA-DP4 binding affinity (<30), the presence of homocitrulline residues in the core region, the peptide being amphipathic in nature with a predominantely spiral conformational structure upon 3D modelling, and the existence of homology between the mouse and human sequences defines immunogenicity. When this model was applied retrospectively to include the vimentin and ALDOA peptides 8/9 (88%) were correctly predicted. […]

[1] = system: B16HHDII/iDP4 tumour cells; experiment: Tumour therapy, B16HHDII/iDP4 tumour in HHDII/DP4 mice; assay type: in vivo, mouse; conditions: peptide with CpG/MPLA
Experimental: For tumour challenge experiments, mice were challenged with B16F1 cells s.c. on the right flank 3 days before primary immunisation (unless stated otherwise) and subsequently immunised as above. Tumour implants were carried out at dose of 2.5×10^4 cells/mouse for B16F1, 2.5×10^4 cells/mouse for B16F1 DR4, 4×10^5 cells/mouse for B16F1 HHDII/DP4, 5×10^5 cells/mouse for B16 HHDII/DR1, 1×10^5 cells/mouse for B16F1 HHDII/inducibleDP4, 5×10^4 cells/mouse for B16F1 inducible DR4. For studies involving depletion antibodies, 250 μg anti-mouse Ly6C antibody (clone Monts, BioXcell) was administered i.p. on days 8, 10, 12, 15, 17 and 19. 400 μg anti-mouse Ly6G antibody (clone 1A8, Biolegend) was administered i.p. on day 8 followed by 250 μg on days 11, 15 and 18. Anti-human CD4 antibody (clone OKT4, BioXcell) or anti-mouse CD8 antibody (clone 2.43, BioXcell) were administered at 500 μg dose on day 4 followed by 300 μg dose on days 8 and 11. Tumour growth was monitored twice weekly and mice were humanely euthanised once tumour reached ≥15 mm in diameter.
To provide further evidence for the role of CD4 T cell responses in tumour therapy HHDII/DP4 mice were implanted with B16HHDII/iDP4 tumour cells on day 1 and then immunised with peptides and CpG/MPLA on days 4, 8 and 11. Concurrent with peptide immunisation mice were also treated with CD4 or CD8 depleting antibody and tumour growth monitored. […] To show whether cyanate/isocyanic acid can cross cell membranes B16F1 melanoma cell line was cultured in vitro in the presence or absence of potassium cyanate which is in dynamic equilibrium with isocyanic acid. As a positive control lysates were also produced from in vitro cultured B16F1 cells and then treated with or without KCNO.

HLA-DP4 (human) [2] = molecular target: HLA-DP4 (human)
HLA-DP4 (human) [3] = experiment: DP4 competition ELISA; competitor biotinylated Hep B peptide; 10 ug unlabelled against 10 ug biotinylated Hep B
[4] = splenocytes after 7 days culture

Chain of HLA-DP4 (human) (P20036 29-260, chain 1 of 2): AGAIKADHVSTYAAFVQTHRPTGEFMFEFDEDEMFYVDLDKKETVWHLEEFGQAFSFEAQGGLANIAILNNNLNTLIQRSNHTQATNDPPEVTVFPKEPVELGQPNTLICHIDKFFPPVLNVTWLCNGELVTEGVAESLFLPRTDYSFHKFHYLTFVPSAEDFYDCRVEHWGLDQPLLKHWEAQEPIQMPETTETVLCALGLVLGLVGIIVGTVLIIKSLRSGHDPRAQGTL
Chain of HLA-DP4 (human) (P04440 30-258, chain 2 of 2, further chain): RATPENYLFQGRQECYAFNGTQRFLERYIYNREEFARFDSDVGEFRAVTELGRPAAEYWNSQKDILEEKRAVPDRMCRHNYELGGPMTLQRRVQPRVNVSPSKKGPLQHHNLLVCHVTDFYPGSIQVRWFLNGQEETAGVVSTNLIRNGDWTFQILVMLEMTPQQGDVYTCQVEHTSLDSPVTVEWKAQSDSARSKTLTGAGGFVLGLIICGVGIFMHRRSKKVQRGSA

| Substance | cross reactivity of Hcit response to wt peptide (HLA-HHDII/DP4 mice) | IFNγ ELISpot response (HLA-HHDII/DP4 mice) | IFNγ response in presence of CD8 blocking antibody (HLA-HHDII/DP4 mice; [4]) | tumour growth / survival vs control [1] | OD (HLA-DP4 (human) [2]) | IFNγ response in presence of CD4 blocking antibody (HLA-HHDII/DP4 mice; [4]) | % inhibition (HLA-DP4 (human) [3]) [%] |
| --- | --- | --- | --- | --- | --- | --- | --- |
| A-Hcit-FINYV-Hcit-NCFRMTDQEAIQDL [NPM 266-287 Hcit] | significantly higher | stimulation of IFNγ responses | lost | Significant prevention of tumour growth |  |  |  |
| Biotinylated Hep B 181-192 peptide |  |  |  |  | 0.85 OD (450 nm) |  |  |
| FSLADAINTEF-Hcit-NTRTNE-Hcit-VELQ [Vimentin 86-108 Hcit] |  | stimulation of IFNγ responses |  | Significant prevention of tumour growth |  | loss of response |  |
| GSHAGN-Hcit-LAMQEFMILPVGAA [Alpha enolase 156-176 Hcit] |  | stimulation of IFNγ responses |  | Significant prevention of tumour growth |  | lost |  |
| Hep B 181-192 peptide (unlabelled) |  |  |  |  |  |  | 47 |
| RNELESYAYSL-Hcit-NQIGD-Hcit- [BiP 562-579 Hcit] | significantly higher | stimulation of IFNγ responses |  | Significant prevention of tumour growth |  | loss of response |  |
